This passage reports IC50 and Ratio results from ChEMBL document CHEMBL1124385, “A new series of tricyclic (aryloximino)propanolamines displaying very high selective beta 2-blocking properties” (J Med Chem, 1989).

Molecules are shown by their SMILES. Some results are limits rather than exact numbers.

In assay [1] the target is Beta-2 adrenergic receptor (Cavia porcellus, UniProt Q8K4Z4). Put plainly: Beta-2 adrenergic receptor blocking was assessed from 50% inhibition of the isoproterenol submaximal response on isolated Guinea pig trachea(IT).
Beta-2 adrenergic receptor, sequence (Q8K4Z4 whole entry): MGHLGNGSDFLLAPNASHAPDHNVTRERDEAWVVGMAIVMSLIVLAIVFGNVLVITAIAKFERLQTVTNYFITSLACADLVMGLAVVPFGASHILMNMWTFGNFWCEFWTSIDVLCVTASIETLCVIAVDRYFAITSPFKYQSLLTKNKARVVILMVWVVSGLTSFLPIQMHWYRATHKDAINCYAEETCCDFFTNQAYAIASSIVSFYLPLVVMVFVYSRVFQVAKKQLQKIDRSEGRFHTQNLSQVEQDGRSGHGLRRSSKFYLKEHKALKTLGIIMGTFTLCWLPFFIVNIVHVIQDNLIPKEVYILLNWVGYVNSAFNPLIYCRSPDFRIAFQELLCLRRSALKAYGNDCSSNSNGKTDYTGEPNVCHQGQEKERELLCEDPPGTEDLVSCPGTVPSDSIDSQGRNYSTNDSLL
Assay [2] deals with Beta-1 adrenergic receptor (Cavia porcellus, UniProt B0FL73). Put plainly: Beta-1 adrenergic receptor blocking was assessed from 50% inhibition of the isoproterenol submaximal response on isolated Guinea pig atria(IA).
Beta-1 adrenergic receptor, sequence (B0FL73 whole entry): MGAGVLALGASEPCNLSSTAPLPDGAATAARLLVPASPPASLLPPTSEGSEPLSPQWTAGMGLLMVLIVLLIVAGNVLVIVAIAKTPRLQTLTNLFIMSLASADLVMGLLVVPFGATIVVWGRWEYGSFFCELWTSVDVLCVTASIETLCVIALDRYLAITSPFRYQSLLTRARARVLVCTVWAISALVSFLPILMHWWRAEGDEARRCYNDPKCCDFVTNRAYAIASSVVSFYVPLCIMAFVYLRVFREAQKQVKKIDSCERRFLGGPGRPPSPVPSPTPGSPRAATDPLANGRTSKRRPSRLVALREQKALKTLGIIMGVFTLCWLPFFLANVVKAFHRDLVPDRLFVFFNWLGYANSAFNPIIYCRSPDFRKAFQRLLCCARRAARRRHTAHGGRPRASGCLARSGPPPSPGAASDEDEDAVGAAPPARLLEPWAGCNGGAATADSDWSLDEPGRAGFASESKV
A short description of assay [3]: Selectivity, ratio of IC50 on guinea pig atria and guinea pig trachea.

Take `COC12CCCCC1c1ccc(F)cc1/C2=N/OCC(O)CNC(C)C` (stereo unspecified): the values for the IC50 in assay [1] and in assay [2] were 0.79 µM and 19 µM, respectively.

As to `CC(C)(C)NCC(O)CO/N=C1/c2ccccc2C2CCCCCC12O` (stereo unspecified), the IC50 in assay [1] is 0.44 µM; in assay [2], 0.34 µM.

`CC(C)(C)NCC(O)CO/N=C1/c2ccccc2C2CCCCC12OCCO` (stereo unspecified): the IC50 in assay [1] is 3.1 µM; in assay [2], 0.85 µM. The Ratio in assay [3] came to 0.28.

On to `COc1cc(CCNCC(O)CO/N=C2/c3ccccc3C3CCCCC23OC)cc(OC)c1` (stereo unspecified), for which the IC50 in assay [1] and in assay [2] was greater than 10 µM throughout.

As for `COc1cc(CCNCC(O)CO/N=C2/c3ccccc3C3CCCCCC23OC)cc(OC)c1` (stereo unspecified), the figures for the IC50 in assay [1] and in assay [2] were greater than 10 µM and 13 µM, respectively.

As to `COC12CCCCC1c1ccc(F)cc1/C2=N/OCC(O)CNC(C)(C)C` (stereo unspecified), the IC50 in assay [1] amounted to 0.45 µM; in assay [2], 0.83 µM.

With `CC(C)NCC(O)CO/N=C1/c2ccccc2C2CCCCC12OCCO` (stereo unspecified), the IC50 in assay [1] and in assay [2] was greater than 10 µM each time.

On to `CC(C)(C)NCC(O)CO/N=C1/c2ccccc2C2CCCCC12O` (stereo unspecified), for which the values for the IC50 in assay [1] and in assay [2] were 31 µM and 2.8 µM, respectively. In assay [3], the Ratio is 0.09.

For `COC12CCCCCC1c1ccccc1/C2=N/OCC(O)CNC(C)C` (stereo unspecified), the values for the IC50 in assay [1] and in assay [2] were 0.035 µM and 3 µM, respectively.

As to `COC12CCCCC1c1ccccc1/C2=N/OCC(O)CNC(C)C` (stereo unspecified), the 50% inhibitory concentration (IC50) in assay [1] came out at 0.3 µM; in assay [2], 1.2 µM.

For the molecule `COc1cc(CCNCC(O)CO/N=C2/c3ccccc3C3CCCCCCCCCC23OC)cc(OC)c1` (stereo unspecified), the half-maximal inhibitory concentration (IC50) in assay [1] and in assay [2] was greater than 10 µM in each case.

Turning to `COC12CCCCCCCCCC1c1ccccc1/C2=N/OCC(O)CNC(C)C` (stereo unspecified), the 50% inhibitory concentration (IC50) in assay [1] and in assay [2] was greater than 10 µM in each case.

On to `CC(C)(C)NCC(O)CO/N=C1/c2ccccc2C2CCCCCC12OCCO` (stereo unspecified), for which the IC50 in assay [1] was 7.9 µM; in assay [2] it was greater than 1 µM.

Take `CC(C)NCC(O)CO/N=C1/c2ccccc2C2CCCCCC12OCCO` (stereo unspecified): the half-inhibitory concentration (IC50) in assay [1] and in assay [2] was greater than 10 µM throughout.

`COC12CCCCC1c1ccccc1/C2=N/OCC(O)CNC(C)(C)C` (stereo unspecified): the IC50 in assay [1] worked out at 0.035 µM; in assay [2], 12 µM. Besides, in assay [3], the Ratio amounted to 33.

Regarding `COc1cc(CCNCC(O)CO/N=C2/c3cc(F)ccc3C3CCCCC23OC)cc(OC)c1` (stereo unspecified), the IC50 in assay [1] and in assay [2] was greater than 10 µM throughout.

Turning to `CC(C)NCC(O)CO/N=C1/c2ccccc2C2CCCCCC12O` (stereo unspecified), the IC50 in assay [1] was greater than 10 µM; in assay [2] it was 0.89 µM.

Take `CC(C)NCC(O)CO/N=C1/c2ccccc2C2CCCCC12O` (stereo unspecified): the IC50 in assay [1] and in assay [2] was greater than 10 µM each time.

For `COC12CCCCCC1c1ccccc1/C2=N/OCC(O)CNC(C)(C)C` (stereo unspecified), the IC50 in assay [1] came out at 0.44 µM; in assay [2], 0.16 µM.
